# Reference: the supplement of paper PMC8671470
# ± gives the standard deviation of the averaged measurements.
# System: HL-60
# Assay: cell viability (% survival relative to DMSO control); higher = less cytotoxic
# Conditions: 0.001 µM; 72 h; co-treatment: AZD3965 100 nM
# Outline: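 HL-60 cells grown in RPMI 1640 with 10% FBS were rescreened against the full library in 384-well plates, in duplicate, at five tenfold concentrations from 1 to 10,000 nM, alongside DMSO or 100 nM of one of three metabolic inhibitors for 72 h at 37 °C, 5% CO2. Reference wells contained DMSO or 10 μM proteasome inhibitor. Viability was read with CellTiter-Glo and normalised to these reference wells, and where reported, area under the curve was taken from four-parameter log-logistic fits in drc and PharmacoGx.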
row,Structure (SMILES),cell viability [%]
1,Fc1ccc(CNc2ncnc3ccc(F)cc23)cc1 [Spautin 1],78.7 ± 29
2,Cn1c2cc(S(C)=O)sc2c2cnn(Cc3cccc(N)c3)c(=O)c21 (stereo not drawn) [TEPP-46],98.7 ± 1.3
3,CCCCCCCCCCCCCCOc1ccc(C(=O)O)o1 [TOFA],96.4 ± 6.9
4,CN1CC(=O)N2[C@H](c3ccc4c(c3)OCO4)c3[nH]c4ccccc4c3C[C@@H]2C1=O [Tadalafil],104 ± 3.4

# Same assay, conditions: 0.001 µM; 72 h; co-treatment: DMSO vehicle
row,Structure (SMILES),cell viability [%]
1,CC(C)(F)C[C@H](N[C@@H](c1ccc(-c2ccc(S(C)(=O)=O)cc2)cc1)C(F)(F)F)C(=O)NC1(C#N)CC1 [Odanacatib],95.8 ± 6.7
2,Nc1nc(O)c2c(CCc3ccc(C(=O)N[C@@H](CCC(=O)O)C(=O)O)cc3)c[nH]c2n1 [Pemetrexed],102 ± 3.2
3,C=C1NC(=O)c2cc(CN(C)c3ccc(C(=O)N[C@@H](CCC(=O)O)C(=O)O)s3)ccc2N1 [Raltitrexed],101 ± 4.5
4,CNC(=C[N+](=O)[O-])NCCSCc1ccc(CN(C)C)o1 [Ranitidine],104 ± 0.67
5,C#CCN[C@@H]1CCc2ccccc21 [Rasagiline],101 ± 1.1
6,NC(CCC(=O)NC(CSCc1ccc(Br)cc1)C(=O)NCC(=O)OC1CCCC1)C(=O)OC1CCCC1 (stereo not drawn) [S-para-Bromobenzylglutathione cyclopentyl diester],102 ± 2.7
7,COc1cc(C2Oc3cc(C4Oc5cc(O)cc(O)c5C(=O)C4O)ccc3OC2CO)ccc1O (stereo not drawn) [Silibinin],100 ± 2.7
8,Fc1ccc(CNc2ncnc3ccc(F)cc23)cc1 [Spautin 1],98.11 ± 0.4
9,Cn1c2cc(S(C)=O)sc2c2cnn(Cc3cccc(N)c3)c(=O)c21 (stereo not drawn) [TEPP-46],99.6 ± 1.3
10,CCCCCCCCCCCCCCOc1ccc(C(=O)O)o1 [TOFA],98.8 ± 0.47
11,CN1CC(=O)N2[C@H](c3ccc4c(c3)OCO4)c3[nH]c4ccccc4c3C[C@@H]2C1=O [Tadalafil],100.5 ± 0.71

# Same assay, conditions: 0.001 µM; 72 h; co-treatment: GSK2194069 100 nM
row,Structure (SMILES),cell viability [%]
1,CC(C)(F)C[C@H](N[C@@H](c1ccc(-c2ccc(S(C)(=O)=O)cc2)cc1)C(F)(F)F)C(=O)NC1(C#N)CC1 [Odanacatib],80.8 ± 23
2,Nc1nc(O)c2c(CCc3ccc(C(=O)N[C@@H](CCC(=O)O)C(=O)O)cc3)c[nH]c2n1 [Pemetrexed],71.6 ± 6.5
3,C=C1NC(=O)c2cc(CN(C)c3ccc(C(=O)N[C@@H](CCC(=O)O)C(=O)O)s3)ccc2N1 [Raltitrexed],98.5 ± 9.8
4,CNC(=C[N+](=O)[O-])NCCSCc1ccc(CN(C)C)o1 [Ranitidine],94.3 ± 10
5,C#CCN[C@@H]1CCc2ccccc21 [Rasagiline],105 ± 1.6
6,NC(CCC(=O)NC(CSCc1ccc(Br)cc1)C(=O)NCC(=O)OC1CCCC1)C(=O)OC1CCCC1 (stereo not drawn) [S-para-Bromobenzylglutathione cyclopentyl diester],104.2 ± 1
7,COc1cc(C2Oc3cc(C4Oc5cc(O)cc(O)c5C(=O)C4O)ccc3OC2CO)ccc1O (stereo not drawn) [Silibinin],107 ± 3.5
8,Fc1ccc(CNc2ncnc3ccc(F)cc23)cc1 [Spautin 1],91.31 ± 0.4
9,Cn1c2cc(S(C)=O)sc2c2cnn(Cc3cccc(N)c3)c(=O)c21 (stereo not drawn) [TEPP-46],97.7 ± 7.9
10,CCCCCCCCCCCCCCOc1ccc(C(=O)O)o1 [TOFA],81.3 ± 24
11,CN1CC(=O)N2[C@H](c3ccc4c(c3)OCO4)c3[nH]c4ccccc4c3C[C@@H]2C1=O [Tadalafil],101.9 ± 0.6

# Same assay, conditions: 0.001 µM; 72 h; co-treatment: pictilisib 100 nM
row,Structure (SMILES),cell viability [%]
1,CC(C)(F)C[C@H](N[C@@H](c1ccc(-c2ccc(S(C)(=O)=O)cc2)cc1)C(F)(F)F)C(=O)NC1(C#N)CC1 [Odanacatib],66.7 ± 44
2,Nc1nc(O)c2c(CCc3ccc(C(=O)N[C@@H](CCC(=O)O)C(=O)O)cc3)c[nH]c2n1 [Pemetrexed],74.2 ± 33
3,C=C1NC(=O)c2cc(CN(C)c3ccc(C(=O)N[C@@H](CCC(=O)O)C(=O)O)s3)ccc2N1 [Raltitrexed],101 ± 4.3
4,CNC(=C[N+](=O)[O-])NCCSCc1ccc(CN(C)C)o1 [Ranitidine],95.9 ± 16
5,C#CCN[C@@H]1CCc2ccccc21 [Rasagiline],89.6 ± 3.1
6,NC(CCC(=O)NC(CSCc1ccc(Br)cc1)C(=O)NCC(=O)OC1CCCC1)C(=O)OC1CCCC1 (stereo not drawn) [S-para-Bromobenzylglutathione cyclopentyl diester],97.1 ± 9.2
7,COc1cc(C2Oc3cc(C4Oc5cc(O)cc(O)c5C(=O)C4O)ccc3OC2CO)ccc1O (stereo not drawn) [Silibinin],103 ± 3.9
